Experimental data: patent publication US6541468B1, “Indolocarbazole derivatives useful for the treatment of neurodegenerative diseases and cancer” (Bayer Corporation, priority 1998, dated 2003)

melting point [°C] | Compound
> 200 | O=C1NC(=O)c2c1c1c3ccccc3n3c1c1c2c2ccccc2n1C1CC3[C@@H](O)[C@H]1O [Example 1, 9,12-Methano-1H-diindolo[1,2,3-fg:3′,2′,1′-kl]pyrrolo[3,4-][1,6]benzodiazocine-1,3 (2H)-dione,9,10,11,12-tetrahydro-10,11-dihydroxy-(9α,10α,11α,12α)]
> 230 | O=C1NC(=O)c2c1c1c3ccccc3n3c1c1c2c2ccccc2n1C1CC3CC1=O (centres unmarked) [Example 3, 9,12-Methano-1H-diindolo[1,2,3-fg:3′,2′,1′-kl]pyrrolo[3,4-I][1,6]benzodiazocine-1,3,10 (2H,9H)-trone, 11,12-dihydro]
